Tests used:
[1] = target: T1, Muscle, skeletal receptor tyrosine-protein kinase (Homo sapiens) (UniProt O15146); assay: Selectivity interaction (KinomeScan (DiscoverX)) EUB0000655a MUSK; details: at 10 µM
T1 sequence (whole entry): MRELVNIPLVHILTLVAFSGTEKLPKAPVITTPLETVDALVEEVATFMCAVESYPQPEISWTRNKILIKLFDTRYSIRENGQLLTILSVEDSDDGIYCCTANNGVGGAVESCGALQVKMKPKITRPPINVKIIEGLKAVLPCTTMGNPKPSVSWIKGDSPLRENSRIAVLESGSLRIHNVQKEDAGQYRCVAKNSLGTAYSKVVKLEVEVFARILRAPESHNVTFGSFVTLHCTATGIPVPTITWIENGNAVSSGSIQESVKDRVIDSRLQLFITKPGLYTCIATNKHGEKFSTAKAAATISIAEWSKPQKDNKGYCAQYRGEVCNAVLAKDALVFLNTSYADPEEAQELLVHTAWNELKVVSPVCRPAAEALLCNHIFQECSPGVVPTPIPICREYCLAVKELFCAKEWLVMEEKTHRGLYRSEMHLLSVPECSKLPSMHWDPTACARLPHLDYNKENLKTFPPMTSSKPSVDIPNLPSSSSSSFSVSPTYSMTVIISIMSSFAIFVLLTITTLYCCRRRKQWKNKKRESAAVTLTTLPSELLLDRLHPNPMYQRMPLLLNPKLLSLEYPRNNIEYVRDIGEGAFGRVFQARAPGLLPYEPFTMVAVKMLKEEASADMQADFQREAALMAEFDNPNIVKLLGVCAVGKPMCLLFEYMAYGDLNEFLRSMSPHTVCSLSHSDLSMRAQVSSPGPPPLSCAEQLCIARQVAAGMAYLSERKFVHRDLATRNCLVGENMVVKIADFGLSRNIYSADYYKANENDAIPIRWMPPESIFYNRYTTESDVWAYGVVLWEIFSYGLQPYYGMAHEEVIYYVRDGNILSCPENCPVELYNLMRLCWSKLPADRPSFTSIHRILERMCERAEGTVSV

[2] = target: Homeodomain-interacting protein kinase 3 (Homo sapiens, UniProt Q9H422); assay: Selectivity interaction (KinomeScan (DiscoverX)) EUB0001079a HIPK3; details: at 1 µM
[3] = target: Cyclin-dependent kinase 11B (Homo sapiens) (UniProt P21127); assay: Selectivity interaction (KinomeScan (DiscoverX)) EUB0000618a CDK11B; details: at 10 µM
Chain of Cyclin-dependent kinase 11B (Homo sapiens) (P21127 whole entry): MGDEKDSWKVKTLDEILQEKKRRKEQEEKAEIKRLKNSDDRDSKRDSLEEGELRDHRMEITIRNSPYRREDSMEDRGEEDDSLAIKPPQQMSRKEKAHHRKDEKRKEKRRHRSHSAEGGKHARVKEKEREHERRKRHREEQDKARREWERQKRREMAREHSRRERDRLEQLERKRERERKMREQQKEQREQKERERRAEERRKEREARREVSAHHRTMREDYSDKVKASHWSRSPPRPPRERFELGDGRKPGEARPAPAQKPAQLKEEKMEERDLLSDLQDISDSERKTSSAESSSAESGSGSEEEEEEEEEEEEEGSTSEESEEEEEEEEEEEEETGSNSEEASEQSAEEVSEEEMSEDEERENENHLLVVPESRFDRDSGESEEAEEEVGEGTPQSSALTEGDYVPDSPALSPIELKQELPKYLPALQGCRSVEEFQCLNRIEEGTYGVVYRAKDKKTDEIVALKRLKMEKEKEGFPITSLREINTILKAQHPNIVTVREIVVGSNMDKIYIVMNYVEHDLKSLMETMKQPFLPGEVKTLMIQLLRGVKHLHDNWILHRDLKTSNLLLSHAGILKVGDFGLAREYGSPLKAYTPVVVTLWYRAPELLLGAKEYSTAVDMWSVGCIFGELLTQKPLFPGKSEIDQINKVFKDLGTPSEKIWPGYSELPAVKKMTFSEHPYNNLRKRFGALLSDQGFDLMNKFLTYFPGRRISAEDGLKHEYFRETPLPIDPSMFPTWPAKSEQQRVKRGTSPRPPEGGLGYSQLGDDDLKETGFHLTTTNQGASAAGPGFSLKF

[4] = target: T2, Ephrin type-A receptor 3 (Homo sapiens) (UniProt P29320); assay: Selectivity interaction (KinomeScan (DiscoverX)) EUB0000618a EPHA3; details: at 10 µM
T2 sequence (whole entry): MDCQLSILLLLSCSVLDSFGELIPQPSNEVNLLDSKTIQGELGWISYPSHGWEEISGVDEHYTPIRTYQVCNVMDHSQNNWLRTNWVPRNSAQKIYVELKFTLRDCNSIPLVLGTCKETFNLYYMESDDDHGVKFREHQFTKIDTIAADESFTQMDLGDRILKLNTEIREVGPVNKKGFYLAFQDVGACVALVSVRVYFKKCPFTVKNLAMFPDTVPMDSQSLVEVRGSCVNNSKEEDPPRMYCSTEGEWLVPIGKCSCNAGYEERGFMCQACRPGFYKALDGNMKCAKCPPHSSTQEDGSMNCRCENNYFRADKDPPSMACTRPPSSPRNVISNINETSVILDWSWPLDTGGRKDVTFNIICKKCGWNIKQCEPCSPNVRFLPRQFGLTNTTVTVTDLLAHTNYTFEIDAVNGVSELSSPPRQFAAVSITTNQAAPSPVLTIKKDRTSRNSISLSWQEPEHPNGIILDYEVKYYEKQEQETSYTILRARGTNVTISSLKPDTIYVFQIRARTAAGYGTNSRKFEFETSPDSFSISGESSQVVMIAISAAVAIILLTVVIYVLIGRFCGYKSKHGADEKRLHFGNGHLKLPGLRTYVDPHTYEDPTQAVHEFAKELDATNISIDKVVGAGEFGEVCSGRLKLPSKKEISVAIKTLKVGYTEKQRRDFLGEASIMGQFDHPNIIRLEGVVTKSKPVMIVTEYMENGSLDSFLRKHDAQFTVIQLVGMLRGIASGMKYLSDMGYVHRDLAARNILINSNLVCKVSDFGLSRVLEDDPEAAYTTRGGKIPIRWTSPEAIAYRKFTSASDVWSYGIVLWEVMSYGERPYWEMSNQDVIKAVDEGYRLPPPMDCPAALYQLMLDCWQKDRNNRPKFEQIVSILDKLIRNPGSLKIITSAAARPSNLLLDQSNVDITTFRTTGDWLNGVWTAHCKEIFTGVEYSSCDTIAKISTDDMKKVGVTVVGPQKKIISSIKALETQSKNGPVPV

[5] = target: T3, Aurora kinase A (Homo sapiens) (UniProt O14965); assay: Selectivity interaction (Kinase panel (DSF assay)) EUB0001558a STK6
T3 sequence (whole entry): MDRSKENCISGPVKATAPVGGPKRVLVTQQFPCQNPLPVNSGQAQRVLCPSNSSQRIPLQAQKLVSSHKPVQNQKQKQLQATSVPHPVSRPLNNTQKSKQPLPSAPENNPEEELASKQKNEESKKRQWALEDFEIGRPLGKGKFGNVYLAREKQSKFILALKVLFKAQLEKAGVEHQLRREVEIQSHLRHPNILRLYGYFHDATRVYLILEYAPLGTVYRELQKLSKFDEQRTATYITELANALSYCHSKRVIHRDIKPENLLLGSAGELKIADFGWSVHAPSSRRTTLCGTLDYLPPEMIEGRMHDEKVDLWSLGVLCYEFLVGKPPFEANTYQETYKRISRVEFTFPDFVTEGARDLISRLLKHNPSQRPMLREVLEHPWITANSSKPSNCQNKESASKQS

[6] = system: Proto-oncogene tyrosine-protein kinase receptor Ret (Homo sapiens), P07949 [M918T]; assay: (§1) Selectivity interaction (KinomeScan (DiscoverX)) EUB0000595a RET; details: at 10 µM
[7] = system: Proto-oncogene tyrosine-protein kinase receptor Ret (Homo sapiens), P07949 [V804L]; assay: as §1; details: at 10 µM
[8] = target: Proto-oncogene tyrosine-protein kinase receptor Ret (Homo sapiens, UniProt P07949); assay: as §1; details: at 10 µM
[9] = target: Serine/threonine-protein kinase 25 (Homo sapiens) (UniProt O00506); assay: Selectivity interaction (KinomeScan (DiscoverX)) EUB0000595a STK25; details: at 10 µM
[10] = target: Ribosomal protein S6 kinase alpha-1 (Homo sapiens, UniProt Q15418); assay: Selectivity interaction (Kinase panel (KiNativ target engagement assay in Jurkat cells)) EUB0001635a RPS6KA1; assay type: cell-based; details: Selectivity number of off-targets 0.0, Selectivity number of targets 233.0, Source Knowledge https://www.sciencedirect.com/science/article/pii/S2451945619300674?via%3Dihub, at 1 µM
[11] = target: Activin receptor type-1-like (Homo sapiens) (UniProt P37023); details: at 10 µM
Chain of Activin receptor type-1-like (Homo sapiens) (P37023 whole entry): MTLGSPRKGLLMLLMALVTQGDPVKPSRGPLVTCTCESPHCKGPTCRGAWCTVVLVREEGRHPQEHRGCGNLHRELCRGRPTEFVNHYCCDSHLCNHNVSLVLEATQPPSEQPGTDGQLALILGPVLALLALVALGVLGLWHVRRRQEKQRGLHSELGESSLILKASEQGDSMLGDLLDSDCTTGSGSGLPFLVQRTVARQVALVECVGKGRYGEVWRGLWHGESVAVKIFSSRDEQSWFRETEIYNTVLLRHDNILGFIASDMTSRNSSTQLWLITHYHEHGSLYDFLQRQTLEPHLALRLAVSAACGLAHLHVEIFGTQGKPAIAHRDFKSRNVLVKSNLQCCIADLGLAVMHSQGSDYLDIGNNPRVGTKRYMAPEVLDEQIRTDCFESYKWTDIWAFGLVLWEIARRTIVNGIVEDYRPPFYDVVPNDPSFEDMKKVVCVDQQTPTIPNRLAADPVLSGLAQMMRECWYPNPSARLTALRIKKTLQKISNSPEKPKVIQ

[12] = target: Mitogen-activated protein kinase kinase kinase 1 (Homo sapiens, UniProt Q13233); details: at 10 µM
Chain of Mitogen-activated protein kinase kinase kinase 1 (Q13233 whole entry): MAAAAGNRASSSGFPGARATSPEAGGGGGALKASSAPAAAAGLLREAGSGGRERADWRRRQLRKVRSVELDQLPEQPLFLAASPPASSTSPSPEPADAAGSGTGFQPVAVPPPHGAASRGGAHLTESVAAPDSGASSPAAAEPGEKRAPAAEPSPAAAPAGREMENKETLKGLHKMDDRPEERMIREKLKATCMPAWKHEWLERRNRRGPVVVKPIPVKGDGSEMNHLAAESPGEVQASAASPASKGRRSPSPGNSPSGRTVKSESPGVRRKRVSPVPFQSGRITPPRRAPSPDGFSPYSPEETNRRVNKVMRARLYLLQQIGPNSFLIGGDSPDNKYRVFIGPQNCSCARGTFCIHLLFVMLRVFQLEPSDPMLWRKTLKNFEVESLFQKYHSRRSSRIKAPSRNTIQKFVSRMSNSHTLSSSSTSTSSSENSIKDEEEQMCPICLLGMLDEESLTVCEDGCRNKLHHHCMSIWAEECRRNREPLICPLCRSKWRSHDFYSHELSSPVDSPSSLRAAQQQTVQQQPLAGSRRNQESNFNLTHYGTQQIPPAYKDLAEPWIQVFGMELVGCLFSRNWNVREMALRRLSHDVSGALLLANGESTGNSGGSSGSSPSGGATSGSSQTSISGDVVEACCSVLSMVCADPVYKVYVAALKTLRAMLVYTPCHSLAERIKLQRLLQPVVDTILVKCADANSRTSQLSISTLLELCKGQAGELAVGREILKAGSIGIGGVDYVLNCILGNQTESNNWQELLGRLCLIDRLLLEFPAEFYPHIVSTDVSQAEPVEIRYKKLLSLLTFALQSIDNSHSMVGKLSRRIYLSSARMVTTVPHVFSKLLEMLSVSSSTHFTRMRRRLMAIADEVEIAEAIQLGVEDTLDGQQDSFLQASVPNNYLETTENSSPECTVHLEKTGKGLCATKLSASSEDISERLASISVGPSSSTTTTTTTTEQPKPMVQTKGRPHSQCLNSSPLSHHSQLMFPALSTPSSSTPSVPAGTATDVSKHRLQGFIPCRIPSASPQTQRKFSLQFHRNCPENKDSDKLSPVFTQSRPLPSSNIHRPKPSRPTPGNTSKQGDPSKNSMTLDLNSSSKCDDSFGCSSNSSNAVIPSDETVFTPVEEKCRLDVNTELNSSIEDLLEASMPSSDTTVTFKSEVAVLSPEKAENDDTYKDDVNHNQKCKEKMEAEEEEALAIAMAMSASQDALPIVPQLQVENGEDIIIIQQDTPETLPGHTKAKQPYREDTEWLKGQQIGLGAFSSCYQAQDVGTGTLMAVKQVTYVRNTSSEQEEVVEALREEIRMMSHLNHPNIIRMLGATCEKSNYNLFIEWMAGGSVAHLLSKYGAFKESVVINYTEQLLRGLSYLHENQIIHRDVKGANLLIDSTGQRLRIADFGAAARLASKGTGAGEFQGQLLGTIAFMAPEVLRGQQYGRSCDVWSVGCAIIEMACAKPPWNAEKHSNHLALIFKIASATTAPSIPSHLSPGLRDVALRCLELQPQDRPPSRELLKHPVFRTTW

[13] = target: Myosin light chain kinase, smooth muscle (Homo sapiens, UniProt Q15746); details: at 10 µM
Chain of Myosin light chain kinase, smooth muscle (Q15746 whole entry): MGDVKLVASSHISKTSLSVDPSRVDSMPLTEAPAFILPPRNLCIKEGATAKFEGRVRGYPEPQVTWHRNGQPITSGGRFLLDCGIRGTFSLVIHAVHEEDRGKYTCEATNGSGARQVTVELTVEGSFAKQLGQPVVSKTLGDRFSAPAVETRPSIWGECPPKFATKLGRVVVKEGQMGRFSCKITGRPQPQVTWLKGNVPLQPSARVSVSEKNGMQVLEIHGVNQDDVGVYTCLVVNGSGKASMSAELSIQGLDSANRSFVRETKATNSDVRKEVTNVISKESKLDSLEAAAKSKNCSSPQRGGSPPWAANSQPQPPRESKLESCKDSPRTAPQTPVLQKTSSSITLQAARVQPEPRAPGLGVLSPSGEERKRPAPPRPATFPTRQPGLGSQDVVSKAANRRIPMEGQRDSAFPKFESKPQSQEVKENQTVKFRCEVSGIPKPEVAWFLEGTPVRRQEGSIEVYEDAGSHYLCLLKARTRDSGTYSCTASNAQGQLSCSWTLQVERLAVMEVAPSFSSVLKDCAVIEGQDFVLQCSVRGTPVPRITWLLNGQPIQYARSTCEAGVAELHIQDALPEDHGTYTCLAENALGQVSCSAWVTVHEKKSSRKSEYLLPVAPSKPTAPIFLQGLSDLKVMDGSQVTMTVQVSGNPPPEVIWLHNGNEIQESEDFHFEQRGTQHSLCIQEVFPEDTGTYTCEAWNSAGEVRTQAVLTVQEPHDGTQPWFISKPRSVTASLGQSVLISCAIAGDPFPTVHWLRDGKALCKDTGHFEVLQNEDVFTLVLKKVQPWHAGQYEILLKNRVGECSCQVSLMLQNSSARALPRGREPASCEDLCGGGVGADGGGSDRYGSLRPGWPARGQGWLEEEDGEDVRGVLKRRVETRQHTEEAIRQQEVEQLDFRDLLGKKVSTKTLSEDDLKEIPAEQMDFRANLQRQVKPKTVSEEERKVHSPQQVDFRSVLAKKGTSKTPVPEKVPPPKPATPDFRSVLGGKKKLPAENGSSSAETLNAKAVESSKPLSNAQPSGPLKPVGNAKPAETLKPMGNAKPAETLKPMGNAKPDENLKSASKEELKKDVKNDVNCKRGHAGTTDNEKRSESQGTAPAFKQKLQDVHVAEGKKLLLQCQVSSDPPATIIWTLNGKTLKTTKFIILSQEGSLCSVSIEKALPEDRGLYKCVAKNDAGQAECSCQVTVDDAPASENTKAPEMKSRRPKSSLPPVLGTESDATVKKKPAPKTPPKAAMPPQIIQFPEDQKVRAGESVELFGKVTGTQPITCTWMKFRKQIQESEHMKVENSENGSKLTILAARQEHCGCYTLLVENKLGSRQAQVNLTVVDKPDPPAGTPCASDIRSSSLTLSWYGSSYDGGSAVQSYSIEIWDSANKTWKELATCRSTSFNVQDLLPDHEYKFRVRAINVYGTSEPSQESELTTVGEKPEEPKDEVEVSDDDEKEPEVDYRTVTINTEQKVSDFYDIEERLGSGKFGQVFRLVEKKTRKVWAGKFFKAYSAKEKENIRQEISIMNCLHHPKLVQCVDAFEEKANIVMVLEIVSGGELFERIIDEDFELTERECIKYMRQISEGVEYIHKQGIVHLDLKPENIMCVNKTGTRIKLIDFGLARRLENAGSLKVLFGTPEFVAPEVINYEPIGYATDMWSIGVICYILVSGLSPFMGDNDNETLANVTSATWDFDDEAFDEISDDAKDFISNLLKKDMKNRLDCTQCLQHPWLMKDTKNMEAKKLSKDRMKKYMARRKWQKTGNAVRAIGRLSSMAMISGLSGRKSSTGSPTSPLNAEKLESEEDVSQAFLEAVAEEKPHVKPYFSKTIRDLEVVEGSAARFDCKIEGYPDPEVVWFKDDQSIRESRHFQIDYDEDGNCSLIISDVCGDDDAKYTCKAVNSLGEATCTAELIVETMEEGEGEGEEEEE

SMILES: CN(C)CCOc1ccc(-c2nc(-c3ccncc3)c(-c3ccc4c(c3)CC/C4=N\O)[nH]2)cc1
- % of control [1]: 98%

SMILES: Nc1cnc(N2CCc3cc(S(=O)(=O)Nc4c(F)cc(Cl)cc4F)cc(N4CCCC4=O)c32)nc1 [TP-020n]
- % of control [2]: 100%

SMILES: O[C@H]1CC[C@H](Nc2ncc3nc(Nc4c(F)cc(F)cc4F)n([C@H]4CCOC4)c3n2)CC1
- % of control [3]: 91%
- % of control [4]: 85%

SMILES: CC(C)(O)[C@H](F)CN1Cc2cc(NC(=O)c3cnn4cccnc34)c(N3CCOCC3)cc2C1=O
- dTM [5]: 3.3 K

SMILES: COCC(=O)NC/C=C/c1ccc2ncnc(Nc3ccc(Oc4ccc(C)nc4)c(C)c3)c2c1 [CP-724714]
- % of control [6]: 77%
- % of control [7]: 100%
- % of control [8]: 87%
- % of control [9]: 94%

SMILES: C=CC(=O)Nc1ccc(C(=O)Nc2[nH]nc3c2CN(C(=O)N[C@H](CN(C)C)c2ccccc2)C3(C)C)cc1
- % of engagement [10]: 14.4%

SMILES: Cc1cc([C@@H](C)Nc2ccccc2C(=O)O)c2nc(N3CCOCC3)cc(=O)n2c1 [AZD-6482]
- % of control [11]: 89%
- % of control [12]: 90%
- % of control [13]: 70%
